Assay results from US20210078917A1, “FUNGICIDAL FERTILIZER COMPOSITION COMPRISING POTASSIUM PHOSPHITE AND GAMMA-POLY-GLUTAMIC ACID” (JIANGSU HUIFENG BIO AGRICULTURE CO., LTD., priority 2018, published 2021).

Experiments:
[1] = system: soybean; experiment: Yield increase test of soybean; type: in vivo; conditions: for Yield (667 M^2): per 667 M^2
Description: (§1) Fertilization method: The fertilizer was co-applied with other fertilizers. The yield, quality and control effect on disease on soybean were determined.

[2] = system: peanut; experiment: Yield increase and quality test of peanut; type: in vivo
Description: (§2) […]. Fertilization method: The fertilizer was applied three times by spraying during the flowering and fruiting period. The yield, quality and control effect on disease on peanut were determined.

[3] = system: root rot, a soil-borne disease of soybeans; experiment: Disease control test of soybean, root rot; type: in vivo
Description: as §1

[4] = system: root rot of potatoes; experiment: Disease control test of potatoes (field), root rot; type: in vivo, potato
Description: (1) Yield increase and disease control test of potatoes with fungicidal fertilizer composition of the present invention. This test was conducted in 2017 in Anding District, Dingxi City, Gansu Province. This area is a typical semi-arid rain-fed agricultural area. The soil type is loessial soil, with deep soil layers and uniform soil fertility. The previous crop is rape. The fertilizer of the present invention was totally applied as a base fertilizer at a time. […] Ridging after flat planting in wide and narrow rows was adopted. The wide row spacing was 60 cm, the narrow row spacing was 30 cm, the plant spacing was 30 cm, the sowing depth was 15 cm, and the plant density was 58,000 plants·hm^−2. Other field management was the same as that in large area of field. The number of large- and medium-sized potatoes ([…]) per plant was randomly determined, and the relative increase rate of large- and medium-sized potatoes was determined. The yield per mu and the relative increase rate of yield were determined. The crude starch content and increase rate of crude starch content were determined. The control effect on root rot of potatoes was also determined.

[5] = system: tomato; experiment: Yield increase and quality test of tomato; type: in vivo; conditions: 60 g active ingredient per mu
Description: […]. This fertilizer was applied on the basis of conventional fertilization in each treatment area. Fertilization method: The fertilizer was applied by spraying during the seedling stage of tomato. The yield, quality and control effect on disease on tomato were determined.

[6] = system: Chinese wolfberry; experiment: Yield increase and quality test of Chinese wolfberry; type: in vivo, Chinese wolfberry "Ningqi No. 7"
Description: The test was carried out in a Chinese wolfberry planting test plot in Koluke Town, Delingha City, Qinghai Province. Chinese wolfberry plants were all three-year-old seedlings of variety “Ningqi No. 7” at a density of 270 plants/667 m^2. This experiment was designed such that different plots were arranged in order. […]. Fertilization method: It was applied together with other base fertilizers, by laying the fertilizer at the bottom of the planting pit, where the depth of the trench was 70 cm, the diameter of the pit was 80 cm, and the soil was mixed in and applied at the bottom when applying fertilizer. The yield, quality and control effect on disease on fresh Chinese wolfberry fruit were determined.

[7] = system: Disease (blight); experiment: Disease control test of pepper, blight; type: in vivo; conditions: 40 g active ingredient per mu
Description: This fertilizer was applied on the basis of conventional fertilization in each treatment area. Fertilization method: The fertilizer was applied by spraying during the seedling stage of pepper. The yield, quality and control effect on disease on pepper were determined.

[8] = system: stem rot of peanut; experiment: Disease control test of peanut, stem rot; type: in vivo
Description: as §2

[9] = system: Disease (black fruit); experiment: Disease control test of Chinese wolfberry, black fruit; type: in vivo, Chinese wolfberry "Ningqi No. 7"
Description: The test was carried out in a Chinese wolfberry planting test plot in Koluke Town, Delingha City, Qinghai Province. Chinese wolfberry plants were all three-year-old seedlings of variety “Ningqi No. 7” at a density of 270 plants/667 m^2. This experiment was designed such that different plots were arranged in order. […] Fertilization method: It was applied together with other base fertilizers, by laying the fertilizer at the bottom of the planting pit, where the depth of the trench was 70 cm, the diameter of the pit was 80 cm, and the soil was mixed in and applied at the bottom when applying fertilizer. The yield, quality and control effect on disease on fresh Chinese wolfberry fruit were determined.

γ-poly-glutamic acid
Branches ([1]; 15 g/mu): 17.5 count
Increase rate (branches) ([1]; 15 g/mu): 1.2%
Increase rate (weight per 100 grains) ([1]; 15 g/mu): 2.8%
Increase rate (yield) ([1]; 15 g/mu): 2.9%
Weight per 100 grains ([1]; 15 g/mu): 25.43 g
Yield (667 M^2) ([1]; 15 g/mu): 181.7
Branches ([1]; 50 g/mu): 17.8 count
Increase rate (branches) ([1]; 50 g/mu): 2.7%
Increase rate (weight per 100 grains) ([1]; 50 g/mu): 3.5%
Increase rate (yield) ([1]; 50 g/mu): 4.5%
Weight per 100 grains ([1]; 50 g/mu): 25.61 g
Yield (667 M^2) ([1]; 50 g/mu): 184.5
Branches ([1]; 100 g/mu): 18.0 count
Increase rate (branches) ([1]; 100 g/mu): 4.1%
Increase rate (weight per 100 grains) ([1]; 100 g/mu): 4.1%
Increase rate (yield) ([1]; 100 g/mu): 5.7%
Weight per 100 grains ([1]; 100 g/mu): 25.75 g
Yield (667 M^2) ([1]; 100 g/mu): 186.7
Branches ([1]; 300 g/mu): 18.1 count
Increase rate (branches) ([1]; 300 g/mu): 4.6%
Increase rate (weight per 100 grains) ([1]; 300 g/mu): 5.3%
Increase rate (yield) ([1]; 300 g/mu): 7.3%
Weight per 100 grains ([1]; 300 g/mu): 26.05 g
Yield (667 M^2) ([1]; 300 g/mu): 189.5
Branches ([1]; 600 g/mu): 18.3 count
Increase rate (branches) ([1]; 600 g/mu): 5.7%
Increase rate (weight per 100 grains) ([1]; 600 g/mu): 6.8%
Increase rate (yield) ([1]; 600 g/mu): 10.5%
Weight per 100 grains ([1]; 600 g/mu): 26.42 g
Yield (667 M^2) ([1]; 600 g/mu): 195.1
Quality: Linoleic acid ([2]; 30 g/mu): 44.52%
Quality: Protein ([2]; 30 g/mu): 22.91%
Yield ([2]; 30 g/mu): 285.3 kg/mu
Yield: Seed yield ([2]; 30 g/mu): 66.7%
Yield: Weight per 100 fruits ([2]; 30 g/mu): 113.4 g
Quality: Linoleic acid ([2]; 60 g/mu): 45.36%
Quality: Protein ([2]; 60 g/mu): 24.31%
Yield ([2]; 60 g/mu): 310.8 kg/mu
Yield: Seed yield ([2]; 60 g/mu): 69.1%
Yield: Weight per 100 fruits ([2]; 60 g/mu): 126.7 g
Control effect ([3]; 15 g/mu, 12 days after application): 9.70%
Control effect ([3]; 15 g/mu, 35 days after application): 4.22%
Control effect ([3]; 50 g/mu, 12 days after application): 14.20%
Control effect ([3]; 50 g/mu, 35 days after application): 7.86%
Control effect ([3]; 100 g/mu, 12 days after application): 20.13%
Control effect ([3]; 100 g/mu, 35 days after application): 10.67%
Control effect ([3]; 300 g/mu, 12 days after application): 22.71%
Control effect ([3]; 300 g/mu, 35 days after application): 15.76%
Control effect ([3]; 600 g/mu, 12 days after application): 27.52%
Control effect ([3]; 600 g/mu, 35 days after application): 18.89%
Control effect ([4]; amount 50 g active ingredient/mu, 10 days after application): 9.87%
Control effect ([4]; amount 50 g active ingredient/mu, 30 days after application): 4.34%
Control effect ([4]; amount 100 g active ingredient/mu, 10 days after application): 17.34%
Control effect ([4]; amount 100 g active ingredient/mu, 30 days after application): 14.47%
Control effect ([4]; amount 400 g active ingredient/mu, 10 days after application): 32.51%
Control effect ([4]; amount 400 g active ingredient/mu, 30 days after application): 25.37%
Quality: Amino acid [5]: 610.17 mg/100 kg
Quality: Vitamin C [5]: 17.32 mg/100 g
Yield: Total yield [5]: 3519 kg/mu
Yield: Weight of single fruit [5]: 21.7 g
Quality: Polysaccharide ([6]; 50 g/mu): 8.79%
Quality: Total amino acid content ([6]; 50 g/mu): 7.53%
Yield of fresh Chinese wolfberry fruit: Weight per 100 fruits ([6]; 50 g/mu): 117.5 g
Yield of fresh Chinese wolfberry fruit: Yield ([6]; 50 g/mu): 2524.5 kg/mu
Quality: Polysaccharide ([6]; 100 g/mu): 9.54%
Quality: Total amino acid content ([6]; 100 g/mu): 7.68%
Yield of fresh Chinese wolfberry fruit: Weight per 100 fruits ([6]; 100 g/mu): 124.7 g
Yield of fresh Chinese wolfberry fruit: Yield ([6]; 100 g/mu): 2658.6 kg/mu
Disease (blight): Control effect ([7]; 10 days after application): 26.27%
Disease (blight): Control effect ([7]; 42 days after application): 10.26%
Disease (Stem rot): Control effect ([8]; 30 g/mu, 10 days after application): 20.41%
Disease (Stem rot): Control effect ([8]; 30 g/mu, 30 days after application): 6.21%
Disease (Stem rot): Control effect ([8]; 60 g/mu, 10 days after application): 31.29%
Disease (Stem rot): Control effect ([8]; 60 g/mu, 30 days after application): 11.58%
Disease (black fruit): Control effect ([9]; 50 g/mu, 10 days after application): 17.56%
Disease (black fruit): Control effect ([9]; 50 g/mu, 30 days after application): 10.99%
Disease (black fruit): Control effect ([9]; 100 g/mu, 10 days after application): 29.17%
Disease (black fruit): Control effect ([9]; 100 g/mu, 30 days after application): 21.35%
